The values below come from US10039282B2, “Six-membered C—N-bonded aryl sulphide and aryl sulphoxide derivatives as pesticides” (BAYER CROPSCIENCE AKTIENGESELLSCHAFT, priority 2013, dated 2018).

In data set [1] the test system is Phaedon cochleariae. Nature of the data set: whole plant or invertebrate. In kind it is in vivo. As to conditions: 168 h. The protocol: 1. Phaedon cochleariae—Spray Test (PHAECO)
(§1) Solvent: 78.0 parts by weight of acetone
(§2) • 1.5 parts by weight of dimethylformamide Emulsifier: alkylaryl polyglycol ether
(§3) To produce an appropriate active compound formulation, 1 part by weight of active compound is dissolved using the specified parts by weight of solvent and made up with water containing an emulsifier concentration of 1000 ppm until the desired concentration is attained. To produce further test concentrations, the preparation is diluted with emulsifier-containing water.
(§4) Discs of Chinese cabbage leaves (Brassica pekinensis) are sprayed with an active compound formulation of the desired concentration and, after drying, populated with larvae of the mustard beetle (Phaedon cochleariae).
After the desired period of time, the effect in % is determined. 100% means that all the beetle larvae have been killed; 0% means that no beetle larvae have been killed.

The test system of data set [2] is Tetranychus urticae. Nature of the data set: Tetranychus urticae spray test, OP-resistant (bean leaf discs). In kind it is in vivo. As to conditions: 500 g/ha, after 6 days. Here is the method:
4. Tetranychus urticae—Spray Test, OP-Resistant
as §1, §2
To produce further test concentrations, the preparation is diluted with emulsifier-containing water.
After 6 days, the efficacy in % is determined. 100% means that all the spider mites have been killed; 0% means that none of the spider mites have been killed.

For data set [3], the system named is Boophilus microplus. Nature of the data set: Boophilus microplus injection test. In kind it is in vivo. The following applies: 20 μg/animal, assessed after 7 days. Here is the method:
1. Boophilus microplus—Injection Test
Solvent: dimethyl sulphoxide
To produce an appropriate active compound formulation, 10 mg of active compound are mixed with 0.5 ml of solvent and the concentrate is diluted with solvent to the desired concentration.
1 μl of the active compound solution is injected into the abdomen of 5 engorged adult female cattle ticks (Boophilus microplus). The animals are transferred into dishes and kept in a climate-controlled room.
The efficacy is assessed after 7 days by laying of fertile eggs. Eggs which are not visibly fertile are stored in a climate-controlled cabinet until the larvae hatch after about 42 days. An efficacy of 100% means that none of the ticks has laid any fertile eggs; 0% means that all the eggs are fertile.

Data set [4] relates to Tetranychus urticae. Nature of the data set: Comparative Tetranychus urticae spray test, OP-resistant (TETRUR). In kind it is in vivo. The following applies: 144 h. The protocol:
2. Tetranychus urticae—Spray Test; OP-Resistant ([…])
as §1, §2, §3
Discs of bean leaves (Phaseolus vulgaris) infested by all stages of the greenhouse red spider mite (Tetranychus urticae) are sprayed with an active compound formulation of the desired concentration.
After the desired period of time, the effect in % is determined 100% means that all the spider mites have been killed; 0% means that none of the spider mites have been killed.

The nature of data set [5]: log P by reversed-phase HPLC analogously to OECD Guideline 117. In kind it is physicochemical. The following applies: reversed-phase C18 HPLC column. The protocol:
The log P values were determined analogously to OECD Guideline 117 (EC Directive 92/69/EEC) by HPLC (high-performance liquid chromatography) using reversed-phase columns (C 18), by the following methods:
[a] The LC-MS determination in the acidic range is effected at pH 2.7 with 0.1% aqueous formic acid and acetonitrile (contains 0.1% formic acid) as eluents; linear gradient from 10% acetonitrile to 95% acetonitrile. log P^[…] is also referred to as log P(HCOOH). [b] LC-MS determination in the neutral range is effected at pH 7.8 with 0.001 molar aqueous ammonium hydrogencarbonate solution and acetonitrile as eluents; linear gradient from 10% acetonitrile to 95% acetonitrile. log P^[…] is also referred to as log P(neutral).
Calibration is effected with solutions of a homologous series of unbranched alkan-2-ones (having 3 to 16 carbon atoms) with known log P values (log P values determined on the basis of the retention times by linear interpolation between two successive alkanones).

Data set [6] relates to Tetranychus urticae. Nature of the data set: Tetranychus urticae spray test, OP-resistant (bean plants). In kind it is in vivo. As to conditions: 20 ppm, after 7 days. Here is the method: 6. Tetranychus urticae—Spray Test, OP-Resistant
(§5) Solvent: 7 parts by weight of dimethylformamide
Emulsifier: alkylaryl polyglycol ether
To produce an appropriate active compound formulation, 1 part by weight of active compound is dissolved using the specified parts by weight of solvent and made up with water containing an emulsifier concentration of 1000 ppm until the desired concentration is attained. To produce further test concentrations, the preparation is diluted with emulsifier-containing water. If the addition of ammonium salts or/and penetrants is required, these are each added in a concentration of 1000 ppm to the formulation solution.
Bean plants (Phaseolus vulgaris) heavily infested by all stages of the greenhouse red spider mite (Tetranychus urticae) are treated by spraying with the active compound formulation in the desired concentration.
After 7 days, the efficacy in % is determined. 100% means that all the spider mites have been killed; 0% means that none of the spider mites have been killed.

For data set [7], the system named is Phaedon cochleariae. As to the kind of experiment: Phaedon cochleariae spray test. The following applies: 500 g/ha, after 7 days. In kind it is in vivo. Here is the method:
3. Phaedon cochleariae—Spray Test
Solvent: 78.0 parts by weight of acetone • • 1.5 parts by weight of dimethylformamide Emulsifier: alkylaryl polyglycol ether
as §3, §4
After 7 days, the efficacy in % is determined 100% means that all the beetle larvae have been killed; 0% means that no beetle larvae have been killed.

Data set [8] deals with Meloidogyne incognita. As to the kind of experiment: Meloidogyne incognita test (sand, lettuce, gall formation after 14 days). In kind it is in vivo. As to conditions: 20 ppm. Here is the method: 2. Meloidogyne Incognita Test
Solvent: 125.0 parts by weight of acetone
To produce an appropriate active compound formulation, 1 part by weight of active compound is mixed with the stated amount of solvent and the concentrate is diluted with water to the desired concentration.
Vessels are filled with sand, active compound solution, an egg/larvae suspension of the southern root-knot nematode (Meloidogyne incognita) and lettuce seeds. The lettuce seeds germinate and the plants develop. The galls develop on the roots.
After 14 days, the nematicidal efficacy in % is determined by the formation of galls. 100% means that no galls were found; 0% means that the number of galls on the treated plants corresponds to the untreated control.

Data set [9] deals with Meloidogyne incognita. Nature of the data set: Meloidogyne incognita test (soil drench, gall formation after 21 days). In kind it is in vivo. The following applies: 8 ppm. The protocol:
5. Meloidogyne incognita Test
as §5
Emulsifier: 2.5 parts by weight of alkylaryl poly glycol ether
To produce an appropriate active compound formulation, 1 part by weight of active compound is mixed with the stated amounts of solvent and emulsifier, and the concentrate is diluted with water to the desired concentration, it being necessary to include the volume of soil which is drenched in the calculation. It should be ensured that a concentration of 20 ppm of emulsifier in the soil is not exceeded. To produce further test concentrations, water is used for dilution.
Pots filled with soil (loamy sand) are watered with the active compound solution. An egg/larvae suspension of the southern root-knot nematode (Meloidogyne incognita) is added, lettuce seeds are scattered over the surface of the soil, and they are covered over with quartz sand. The lettuce seeds germinate and the plants develop. The galls develop on the roots.
After 21 days, the nematicidal efficacy in % is determined by the formation of galls. 100% means that no galls have been found; 0% means that the number of galls on the treated plants corresponds to the untreated control.

The mark [10] stands for this setting: acidic range, pH 2.7, 0.1% aqueous formic acid/acetonitrile, read-out: logP (HCOOH).
[11] abbreviates: neutral range, pH 7.8, 0.001 molar aqueous ammonium hydrogencarbonate/acetonitrile, read-out: logP (neutral).

Like-named read-outs stand apart in the source and are kept apart here.

For orientation: mortality means the percentage killed. `N#Cc1cc(F)c(-n2cnc(C(F)(F)F)cc2=O)cc1[S+]([O-])CC(F)(F)F` (stereo not drawn) [5-fluoro-4-[6-oxo-4-(trifluoromethyl)pyrimidin-1-yl]-2-(2,2,2-trifluoroethylsulphinyl)benzonitrile] had a mortality at 500 g/ha in data set [1] of 50%.

Regarding `Cc1cc(C)c([S+]([O-])CC(F)(F)F)cc1-n1cnc(C(F)(F)F)cc1=O` (racemic) [Example 6, 3-[2,4-Dimethyl-5-(2,2,2-trifluoroethylsulphinyl)phenyl]-6-(trifluoromethyl)pyrimidin-4-one], the “efficacy (spider mites killed)” value in data set [2] amounted to 100%. The “efficacy (no fertile eggs laid)” value in data set [3] came out at 100%. The mortality at 20 g/ha in data set [4] (TETRUR, 20 g/ha, 6 dat, read-out: % mortality) amounted to 100%. In addition, the values for the chromatographic logP in data set [5] (setting [10]) and in data set [5] (setting [11]) were 2.43 and 2.39, respectively.

Turning to `Cc1cc(C)c([S+]([O-])CC(F)(F)F)cc1-n1cnc(C(F)(F)F)cc1=O` (single isomer, unassigned) [Example 56], the “efficacy (spider mites killed)” value in data set [6] came out at 100%.

As for `Cc1cc(F)c(-n2cnc(C(F)(F)C(F)(F)F)cc2=O)cc1SCC(F)(F)F` [Example 9], the “efficacy (beetle larvae killed)” value in [7] is listed as 100%. Further, in data set [2], the “efficacy (spider mites killed)” value was 100%. For the same molecule, the “efficacy (no fertile eggs laid)” value in [3] was determined as 100%. The “nematicidal efficacy (formation of galls)” value in [8] came to 90%.

Turning to `Cc1cc(F)c(-n2cnc(C(F)(F)F)cc2=O)cc1[S+]([O-])CC(F)(F)F` (stereo not drawn) [Example 2, 3-{2-Fluoro-4-methyl-5-[(2,2,2-trifluoroethyl)sulphinyl]phenyl}-6-(trifluoromethyl)pyrimidin-4(3H)-one], the “efficacy (beetle larvae killed)” value in data set [7] was 100%. In [9], the “nematicidal efficacy (formation of galls)” value was 85%. Besides, the mortality at 500 g/ha in [1] came to 100%. Besides, the “efficacy (spider mites killed)” value in [2] came to 100%. Besides, the “efficacy (no fertile eggs laid)” value in [3] stood at 100%. For the same molecule, the chromatographic logP in [5] (setting [10]) is 2.4; in [5] (setting [11]), 2.38.

In data set [1], `N#Cc1ccc(-n2cnc(C(F)(F)F)cc2=O)cc1[S+]([O-])CC(F)(F)F` (stereo not drawn) [4-[6-oxo-4-(trifluoromethyl)pyrimidin-1-yl]-2-(2,2,2-trifluoroethylsulphinyl)benzonitrile, reference compound] had a mortality at 500 g/ha of 0%. Besides, the mortality at 20 g/ha in data set [4] was 0%.

In the case of `Cc1cc(C)c([S+]([O-])CC(F)(F)F)cc1-n1cnc(C(F)(F)F)cc1=O` (single isomer, unassigned) [Example 49], the “efficacy (spider mites killed)” value in [6] worked out at 100%.

Consider `Cc1cc(Cl)c(-n2cnc(C(F)(F)F)cc2=O)cc1[S+]([O-])CC(F)(F)F` (racemic) [Example 53], for which the “efficacy (beetle larvae killed)” value in [7] is on record as 100%. In addition, the “efficacy (spider mites killed)” value in [2] was found to be 100%. In addition, the “efficacy (no fertile eggs laid)” value in data set [3] came out at 100%.
